{
  "source": "patent US11000509B2",
  "about": "“Methods and compositions for daily ophthalmic administration of phentolamine to improve visual performance” (Ocuphire Pharma, Inc., priority 2013, dated 2021)",
  "key": {"[1]": {"test_system": "eyes of patients suffering from severe night vision difficulty", "assay": "Example 1 clinical study: reduction in pupil diameter", "assay_type": "in vivo, humans", "conditions": "from percentage of eyes with at least 10% reduction in pupil diameter after the last dose, second period, 1% (w/v) (FIG. 4B)", "description": "Sixty patients with normal day vision (i.e., 20/40 or better) but which suffer from severe night vision difficulty were enrolled in the study. During the first period of the study, patients were randomized into three groups. The groups received either placebo, 0.5% (w/v) phentolamine mesylate, or 1.0% (w/v) phentolamine mesylate once daily for 15 days. The patients were observed on days 1, 4, 8, and 15 prior to administering the ophthalmic solution of phentolamine mesylate and then observed again two hours after the ophthalmic solution of phentolamine mesylate was administered. During the second period of the study, all sixty patients were instructed to administer an ophthalmic solution of phentolamine mesylate (1% (w/v)) as needed, but no more than once daily to each eye. The ophthalmic solution of phentolamine mesylate contained: 1% (w/v) phentolamine mesylate, 4% (w/v) mannitol, 3 mM sodium acetate, and water. The placebo was a solution containing 4% (w/v) mannitol, 3 mM sodium acetate, and water."}, "[2]": {"test_system": "eyes of patients with pupil size in dim light of greater than 7 mm", "assay": "Example 2 clinical study: monocular high contrast visual acuity under photopic conditions (100% tint chart)", "assay_type": "in vivo, humans", "experimental": "(§1) Sixteen patients were randomized into four groups (of four subjects each). Each group was treated on three successive study visits separated by at least 4 days with one drop of ophthalmic oxymetazoline solution (Visine LR®) in each eye followed by one drop test article in each eye. The test article was a 0.2% (w/v) phentolamine mesylate solution, 0.4% (w/v) phentolamine mesylate solution, 0.8% (w/v) phentolamine mesylate solution, or placebo. Test articles contained the designed amount of phentolamine mesylate in a solution of Tears Naturale II® (from Alcon Labs). Placebo was just Tears Naturale II® (from Alcon Labs). Tears Naturale II® (from Alcon Labs) contains Dextran 70 (0.1% by weight), Hydroxypropyl Methylcellulose 2910 (0.3% by weight), Polyquarternium-1 (0.001% by weight), potassium chloride, water (purified), sodium borate, sodium chloride, and hydrochloric acid and/or sodium hydroxide as necessary to adjust the pH. The patients' eye redness and pupil diameters were recorded at baseline (i.e., prior to treatment administration), and at 30 minutes, 1 hour, 2 hours, 4 hours, and 8 hours after administration of test articles. The incidence of any treatment-emergent adverse events was also recorded. Total study duration was approximately nine hours.\n(§2) Eye redness of patients' eyes was evaluated by the research assistant and recorded as a single integer of value 0 (no redness) to 4 (extreme redness) at baseline and each time point after treatment. Pupil diameters were measured to within 0.1 mm for each eye at baseline and each subsequent time point using a NeurOptics™ pupilometer. Monocular high contrast visual acuity was measured for each eye under photopic conditions at baseline and each subsequent time point in a darkened room using a Precision Vision™ High Contrast (100% tint) Visual Acuity Chart (Catalog #2102) backlit by the Precision Vision Illumination Box. Monocular low contrast visual acuity was measured for each eye under photopic conditions at baseline and each subsequent time point in a darkened room using a Precision Vision™ Low Contrast (5% tint) Visual Acuity Chart (Catalog #2186) backlit by the Precision Vision Illumination Box. Effect of treatment on glare was assessed using an experimental test method consisting of a panel with a high wattage central light emitting diode (LED) and a set of 7 lower wattage red LEDs radiating horizontally and vertically from the central light.\nComparisons of changes in mean values within treatment groups were tested for significance using two-tailed paired two sample t-tests with a threshold for significance set at p<0.01 (Bonferroni Correction for multiple paired t-tests). Differences between treatment groups with respect to mean values for pupil size over the course of the study were tested for significance using repeated measure ANOVA (which discards data from subjects lacking any data points). Differences in mean eye redness between treatment groups were evaluated using Kruskal-Wallis nonparametric testing. Differences in means between treatment groups at individual time points were tested for significance using one-way ANOVA."}, "[3]": {"test_system": "eyes of patients with pupil size in dim light of greater than 7 mm", "set-up": "species or system humans", "conditions": "human, in vivo", "experimental": "as §1, §2\nComparisons of changes in mean values within treatment groups were tested for significance using two-tailed paired two sample t-tests with a threshold for significance set at p<0.01 (Bonferroni Correction for multiple paired t-tests). […] Differences in mean eye redness between treatment groups were evaluated using Kruskal-Wallis nonparametric testing. […]"}, "[4]": {"conditions": "0.2% (w/v) solution, 30 min after treatment"}, "[5]": {"conditions": "0.2% (w/v) solution, 1 hour after treatment"}, "[6]": {"conditions": "0.2% (w/v) solution, 2 hours after treatment"}, "[7]": {"conditions": "0.2% (w/v) solution, 4 hours after treatment"}, "[8]": {"conditions": "0.2% (w/v) solution, 8 hours after treatment"}, "[9]": {"conditions": "0.2% (w/v) solution, Baseline, prior to treatment"}, "[10]": {"conditions": "0.4% (w/v) solution, 30 min after treatment"}, "[11]": {"conditions": "0.4% (w/v) solution, 1 hour after treatment"}, "[12]": {"conditions": "0.4% (w/v) solution, 2 hours after treatment"}, "[13]": {"conditions": "0.4% (w/v) solution, 4 hours after treatment"}, "[14]": {"conditions": "0.4% (w/v) solution, 8 hours after treatment"}, "[15]": {"conditions": "0.4% (w/v) solution, Baseline, prior to treatment"}, "[16]": {"conditions": "0.8% (w/v) solution, 30 min after treatment"}, "[17]": {"conditions": "0.8% (w/v) solution, 1 hour after treatment"}, "[18]": {"conditions": "0.8% (w/v) solution, 2 hours after treatment"}, "[19]": {"conditions": "0.8% (w/v) solution, 4 hours after treatment"}, "[20]": {"conditions": "0.8% (w/v) solution, 8 hours after treatment"}, "[21]": {"conditions": "0.8% (w/v) solution, Baseline, prior to treatment"}},
  "note": "Structures can show the parent of a compound that is named as a salt. Where two headings read alike, the source gives them in different places.",
  "data": [
    {"smiles": "Cc1ccc(N(CC2=NCCN2)c2cccc(O)c2)cc1", "note": "[Phentolamine Mesylate, phentolamine mesylate]", "values": [
      {"measurement": "pharmacokinetic half-life", "setting": "[1]", "result": "approximately two"},
      {"measurement": "Maximum high contrast visual acuity", "setting": "[2]; [4]", "result": 0.22, "unit": "LogMar"},
      {"measurement": "Mean high contrast visual acuity", "setting": "[2]; [4]", "result": 0.05, "unit": "LogMar"},
      {"measurement": "Minimum high contrast visual acuity", "setting": "[2]; [4]", "result": "−0.32", "unit": "LogMar"},
      {"measurement": "Maximum high contrast visual acuity", "setting": "[2]; [5]", "result": 0.22, "unit": "LogMar"},
      {"measurement": "Mean high contrast visual acuity", "setting": "[2]; [5]", "result": 0.08, "unit": "LogMar"},
      {"measurement": "Minimum high contrast visual acuity", "setting": "[2]; [5]", "result": "−0.20", "unit": "LogMar"},
      {"measurement": "Maximum high contrast visual acuity", "setting": "[2]; [6]", "result": 0.26, "unit": "LogMar"},
      {"measurement": "Mean high contrast visual acuity", "setting": "[2]; [6]", "result": 0.08, "unit": "LogMar"},
      {"measurement": "Minimum high contrast visual acuity", "setting": "[2]; [6]", "result": "−0.22", "unit": "LogMar"},
      {"measurement": "Maximum high contrast visual acuity", "setting": "[2]; [7]", "result": 0.22, "unit": "LogMar"},
      {"measurement": "Mean high contrast visual acuity", "setting": "[2]; [7]", "result": 0.09, "unit": "LogMar"},
      {"measurement": "Minimum high contrast visual acuity", "setting": "[2]; [7]", "result": "−0.20", "unit": "LogMar"},
      {"measurement": "Maximum high contrast visual acuity", "setting": "[2]; [8]", "result": 0.22, "unit": "LogMar"},
      {"measurement": "Mean high contrast visual acuity", "setting": "[2]; [8]", "result": 0.08, "unit": "LogMar"},
      {"measurement": "Minimum high contrast visual acuity", "setting": "[2]; [8]", "result": "−0.32", "unit": "LogMar"},
      {"measurement": "Maximum high contrast visual acuity", "setting": "[2]; [9]", "result": 0.22, "unit": "LogMar"},
      {"measurement": "Mean high contrast visual acuity", "setting": "[2]; [9]", "result": 0.04, "unit": "LogMar"},
      {"measurement": "Minimum high contrast visual acuity", "setting": "[2]; [9]", "result": "−0.32", "unit": "LogMar"},
      {"measurement": "Maximum high contrast visual acuity", "setting": "[2]; [10]", "result": 0.22, "unit": "LogMar"},
      {"measurement": "Mean high contrast visual acuity", "setting": "[2]; [10]", "result": 0.12, "unit": "LogMar"},
      {"measurement": "Minimum high contrast visual acuity", "setting": "[2]; [10]", "result": "−0.20", "unit": "LogMar"},
      {"measurement": "Maximum high contrast visual acuity", "setting": "[2]; [11]", "result": 0.26, "unit": "LogMar"},
      {"measurement": "Mean high contrast visual acuity", "setting": "[2]; [11]", "result": 0.11, "unit": "LogMar"},
      {"measurement": "Minimum high contrast visual acuity", "setting": "[2]; [11]", "result": "−0.20", "unit": "LogMar"},
      {"measurement": "Maximum high contrast visual acuity", "setting": "[2]; [12]", "result": 0.30, "unit": "LogMar"},
      {"measurement": "Mean high contrast visual acuity", "setting": "[2]; [12]", "result": 0.14, "unit": "LogMar"},
      {"measurement": "Minimum high contrast visual acuity", "setting": "[2]; [12]", "result": "−0.10", "unit": "LogMar"},
      {"measurement": "Maximum high contrast visual acuity", "setting": "[2]; [13]", "result": 0.30, "unit": "LogMar"},
      {"measurement": "Mean high contrast visual acuity", "setting": "[2]; [13]", "result": 0.15, "unit": "LogMar"},
      {"measurement": "Minimum high contrast visual acuity", "setting": "[2]; [13]", "result": "−0.11", "unit": "LogMar"},
      {"measurement": "Maximum high contrast visual acuity", "setting": "[2]; [14]", "result": 0.30, "unit": "LogMar"},
      {"measurement": "Mean high contrast visual acuity", "setting": "[2]; [14]", "result": 0.13, "unit": "LogMar"},
      {"measurement": "Minimum high contrast visual acuity", "setting": "[2]; [14]", "result": "−0.18", "unit": "LogMar"},
      {"measurement": "Maximum high contrast visual acuity", "setting": "[2]; [15]", "result": 0.22, "unit": "LogMar"},
      {"measurement": "Mean high contrast visual acuity", "setting": "[2]; [15]", "result": 0.09, "unit": "LogMar"},
      {"measurement": "Minimum high contrast visual acuity", "setting": "[2]; [15]", "result": "−0.24", "unit": "LogMar"},
      {"measurement": "Maximum high contrast visual acuity", "setting": "[2]; [16]", "result": 0.22, "unit": "LogMar"},
      {"measurement": "Mean high contrast visual acuity", "setting": "[2]; [16]", "result": 0.11, "unit": "LogMar"},
      {"measurement": "Minimum high contrast visual acuity", "setting": "[2]; [16]", "result": "−0.16", "unit": "LogMar"},
      {"measurement": "Maximum high contrast visual acuity", "setting": "[2]; [17]", "result": 0.26, "unit": "LogMar"},
      {"measurement": "Mean high contrast visual acuity", "setting": "[2]; [17]", "result": 0.12, "unit": "LogMar"},
      {"measurement": "Minimum high contrast visual acuity", "setting": "[2]; [17]", "result": "−0.10", "unit": "LogMar"},
      {"measurement": "Maximum high contrast visual acuity", "setting": "[2]; [18]", "result": 0.30, "unit": "LogMar"},
      {"measurement": "Mean high contrast visual acuity", "setting": "[2]; [18]", "result": 0.12, "unit": "LogMar"},
      {"measurement": "Minimum high contrast visual acuity", "setting": "[2]; [18]", "result": "−0.16", "unit": "LogMar"},
      {"measurement": "Maximum high contrast visual acuity", "setting": "[2]; [19]", "result": 0.30, "unit": "LogMar"},
      {"measurement": "Mean high contrast visual acuity", "setting": "[2]; [19]", "result": 0.12, "unit": "LogMar"},
      {"measurement": "Minimum high contrast visual acuity", "setting": "[2]; [19]", "result": "−0.20", "unit": "LogMar"},
      {"measurement": "Maximum high contrast visual acuity", "setting": "[2]; [20]", "result": 0.30, "unit": "LogMar"},
      {"measurement": "Mean high contrast visual acuity", "setting": "[2]; [20]", "result": 0.13, "unit": "LogMar"},
      {"measurement": "Minimum high contrast visual acuity", "setting": "[2]; [20]", "result": "−0.20", "unit": "LogMar"},
      {"measurement": "Maximum high contrast visual acuity", "setting": "[2]; [21]", "result": 0.22, "unit": "LogMar"},
      {"measurement": "Mean high contrast visual acuity", "setting": "[2]; [21]", "result": 0.06, "unit": "LogMar"},
      {"measurement": "Minimum high contrast visual acuity", "setting": "[2]; [21]", "result": "−0.41", "unit": "LogMar"},
      {"measurement": "maximal mean increase in high contrast visual acuity", "setting": "[2]; 0.8%, at 4 and 8 hours", "result": 0.06, "unit": "Log Mar"},
      {"measurement": "improvement in high contrast vision", "setting": "[2]; 0.8%, at 4 and 8 hours, equivalent of the maximal mean increase", "result": "~3 letters on a Snellen chart"},
      {"measurement": "Range of eye redness scores", "setting": "[3]", "result": "0-1"},
      {"measurement": "eye redness", "setting": "[3]", "result": "modest increase in eye redness"},
      {"measurement": "mean eye redness versus placebo", "setting": "[3]", "result": "did not differ from placebo"},
      {"measurement": "Range of eye redness scores", "setting": "[3]; 30 min", "result": "0-1"}
    ]}
  ]
}
